Laboratory results as given in the NIST ThermoML archive (doi:10.1016/j.jct.2012.03.003).

Assay: xn = mol fraction of the nth substance listed
Conditions: Liquid, Vibrating tube method

COc1cc2c(cc1O)CC1c3c(cc(O)c(OC)c3-2)CCN1C (stereo not given) [boldine] + CCO
Conditions	mass density [kg/m3]
352.81 K, 16000 kPa, x1 = 0.0012	755.72
352.81 K, 16000 kPa, x1 = 0.0136	781.95
352.81 K, 17000 kPa, x1 = 0.0012	756.73
352.81 K, 17000 kPa, x1 = 0.0136	782.94
352.81 K, 18000 kPa, x1 = 0.0012	757.73
352.81 K, 18000 kPa, x1 = 0.0136	783.9
352.81 K, 19000 kPa, x1 = 0.0012	758.72
352.81 K, 19000 kPa, x1 = 0.0136	784.85
352.81 K, 20000 kPa, x1 = 0.0012	759.69
352.81 K, 20000 kPa, x1 = 0.0136	785.8
352.82 K, 1000 kPa, x1 = 0.0267	792.92
352.82 K, 2000 kPa, x1 = 0.0267	794.02
352.82 K, 3000 kPa, x1 = 0.0267	795.11
352.82 K, 4000 kPa, x1 = 0.0267	796.19
352.82 K, 5000 kPa, x1 = 0.0267	797.27
352.82 K, 6000 kPa, x1 = 0.0267	798.34
352.82 K, 7000 kPa, x1 = 0.0267	799.39
352.82 K, 8000 kPa, x1 = 0.0267	800.44
352.82 K, 9000 kPa, x1 = 0.0267	801.49
352.82 K, 10000 kPa, x1 = 0.0267	802.51
352.82 K, 11000 kPa, x1 = 0.0267	803.53
352.82 K, 12000 kPa, x1 = 0.0267	804.54
352.82 K, 13000 kPa, x1 = 0.0267	805.54
352.82 K, 14000 kPa, x1 = 0.0267	806.51
352.82 K, 15000 kPa, x1 = 0.0267	807.49
352.82 K, 16000 kPa, x1 = 0.0267	808.44
352.82 K, 17000 kPa, x1 = 0.0267	809.38
352.82 K, 18000 kPa, x1 = 0.0267	810.32
352.82 K, 19000 kPa, x1 = 0.0267	811.24
352.82 K, 20000 kPa, x1 = 0.0267	812.14
352.88 K, 1000 kPa, x1 = 0.0074	751.94
352.88 K, 2000 kPa, x1 = 0.0074	753.18
352.88 K, 3000 kPa, x1 = 0.0074	754.29
352.88 K, 4000 kPa, x1 = 0.0074	755.45
352.88 K, 5000 kPa, x1 = 0.0074	756.6
352.88 K, 6000 kPa, x1 = 0.0074	757.75
352.88 K, 7000 kPa, x1 = 0.0074	758.88
352.88 K, 8000 kPa, x1 = 0.0074	760.01
352.88 K, 9000 kPa, x1 = 0.0074	761.12
352.88 K, 10000 kPa, x1 = 0.0074	762.21
352.88 K, 11000 kPa, x1 = 0.0074	763.3
352.88 K, 12000 kPa, x1 = 0.0074	764.38
352.88 K, 13000 kPa, x1 = 0.0074	765.43
352.88 K, 14000 kPa, x1 = 0.0074	766.48
352.88 K, 15000 kPa, x1 = 0.0074	767.51
352.88 K, 16000 kPa, x1 = 0.0074	768.53
352.88 K, 17000 kPa, x1 = 0.0074	769.53
352.88 K, 18000 kPa, x1 = 0.0074	770.52
352.88 K, 19000 kPa, x1 = 0.0074	771.48
352.88 K, 20000 kPa, x1 = 0.0074	772.43
362.76 K, 1000 kPa, x1 = 0.0196	770.85
362.76 K, 2000 kPa, x1 = 0.0196	772.05
362.76 K, 3000 kPa, x1 = 0.0196	773.24
362.76 K, 4000 kPa, x1 = 0.0196	774.43
362.76 K, 5000 kPa, x1 = 0.0196	775.6
362.76 K, 6000 kPa, x1 = 0.0196	776.76
362.76 K, 7000 kPa, x1 = 0.0196	777.92
362.76 K, 8000 kPa, x1 = 0.0196	779.06
362.76 K, 9000 kPa, x1 = 0.0196	780.2
362.76 K, 10000 kPa, x1 = 0.0196	781.28
362.76 K, 11000 kPa, x1 = 0.0196	782.39
362.76 K, 12000 kPa, x1 = 0.0196	783.48
362.76 K, 13000 kPa, x1 = 0.0196	784.55
362.76 K, 14000 kPa, x1 = 0.0196	785.61
362.76 K, 15000 kPa, x1 = 0.0196	786.65
362.76 K, 16000 kPa, x1 = 0.0196	787.68
362.76 K, 17000 kPa, x1 = 0.0196	788.71
362.76 K, 18000 kPa, x1 = 0.0196	789.69
362.76 K, 19000 kPa, x1 = 0.0196	790.66
362.76 K, 20000 kPa, x1 = 0.0196	791.63
362.77 K, 1000 kPa, x1 = 0.0136	755.74
362.77 K, 1000 kPa, x1 = 0.0267	783.02
362.77 K, 2000 kPa, x1 = 0.0136	756.99
362.77 K, 2000 kPa, x1 = 0.0267	784.19
362.77 K, 3000 kPa, x1 = 0.0136	758.22
362.77 K, 3000 kPa, x1 = 0.0267	785.37
362.77 K, 4000 kPa, x1 = 0.0136	759.44
362.77 K, 4000 kPa, x1 = 0.0267	786.53
362.77 K, 5000 kPa, x1 = 0.0136	760.66
362.77 K, 5000 kPa, x1 = 0.0267	787.67
362.77 K, 6000 kPa, x1 = 0.0136	761.86
362.77 K, 6000 kPa, x1 = 0.0267	788.81
362.77 K, 7000 kPa, x1 = 0.0136	763.05
362.77 K, 7000 kPa, x1 = 0.0267	789.94
362.77 K, 8000 kPa, x1 = 0.0136	764.22
362.77 K, 8000 kPa, x1 = 0.0267	791.05
362.77 K, 9000 kPa, x1 = 0.0136	765.39
362.77 K, 9000 kPa, x1 = 0.0267	792.16
362.77 K, 10000 kPa, x1 = 0.0136	766.54
362.77 K, 10000 kPa, x1 = 0.0267	793.25
362.77 K, 11000 kPa, x1 = 0.0136	767.67
362.77 K, 11000 kPa, x1 = 0.0267	794.34
362.77 K, 12000 kPa, x1 = 0.0136	768.79
362.77 K, 12000 kPa, x1 = 0.0267	795.38
362.77 K, 13000 kPa, x1 = 0.0136	769.9
362.77 K, 13000 kPa, x1 = 0.0267	796.43
362.77 K, 14000 kPa, x1 = 0.0136	770.98
362.77 K, 14000 kPa, x1 = 0.0267	797.48
362.77 K, 15000 kPa, x1 = 0.0136	772.08
362.77 K, 15000 kPa, x1 = 0.0267	798.5
362.77 K, 16000 kPa, x1 = 0.0136	773.14
362.77 K, 16000 kPa, x1 = 0.0267	799.5
362.77 K, 17000 kPa, x1 = 0.0136	774.19
362.77 K, 17000 kPa, x1 = 0.0267	800.5
362.77 K, 18000 kPa, x1 = 0.0136	775.2
362.77 K, 18000 kPa, x1 = 0.0267	801.48
362.77 K, 19000 kPa, x1 = 0.0136	776.22
362.77 K, 19000 kPa, x1 = 0.0267	802.44
362.77 K, 20000 kPa, x1 = 0.0136	777.21
362.77 K, 20000 kPa, x1 = 0.0267	803.41
362.78 K, 1000 kPa, x1 = 0.0012	728.71
362.78 K, 2000 kPa, x1 = 0.0012	730.01
362.78 K, 3000 kPa, x1 = 0.0012	731.31
362.78 K, 4000 kPa, x1 = 0.0012	732.6
362.78 K, 5000 kPa, x1 = 0.0012	733.87
362.78 K, 6000 kPa, x1 = 0.0012	735.12
362.78 K, 7000 kPa, x1 = 0.0012	736.36
362.78 K, 8000 kPa, x1 = 0.0012	737.59
362.78 K, 9000 kPa, x1 = 0.0012	738.8
362.78 K, 10000 kPa, x1 = 0.0012	739.99
362.78 K, 11000 kPa, x1 = 0.0012	741.18
362.78 K, 12000 kPa, x1 = 0.0012	742.33
362.78 K, 13000 kPa, x1 = 0.0012	743.48
362.78 K, 14000 kPa, x1 = 0.0012	744.62
362.78 K, 15000 kPa, x1 = 0.0012	745.73
362.78 K, 16000 kPa, x1 = 0.0012	746.83
362.78 K, 17000 kPa, x1 = 0.0012	747.9
362.78 K, 18000 kPa, x1 = 0.0012	748.97
362.78 K, 19000 kPa, x1 = 0.0012	750.01
362.78 K, 20000 kPa, x1 = 0.0012	751.05
362.87 K, 1000 kPa, x1 = 0.0074	741.96
362.87 K, 2000 kPa, x1 = 0.0074	743.24
362.87 K, 3000 kPa, x1 = 0.0074	744.5
362.87 K, 4000 kPa, x1 = 0.0074	745.75
362.87 K, 5000 kPa, x1 = 0.0074	746.98
362.87 K, 6000 kPa, x1 = 0.0074	748.21
362.87 K, 7000 kPa, x1 = 0.0074	749.43
362.87 K, 8000 kPa, x1 = 0.0074	750.63
362.87 K, 9000 kPa, x1 = 0.0074	751.81
362.87 K, 10000 kPa, x1 = 0.0074	752.98
362.87 K, 11000 kPa, x1 = 0.0074	754.12
362.87 K, 12000 kPa, x1 = 0.0074	755.27
362.87 K, 13000 kPa, x1 = 0.0074	756.39
362.87 K, 14000 kPa, x1 = 0.0074	757.5
362.87 K, 15000 kPa, x1 = 0.0074	758.59
362.87 K, 16000 kPa, x1 = 0.0074	759.65
362.87 K, 17000 kPa, x1 = 0.0074	760.72
362.87 K, 18000 kPa, x1 = 0.0074	761.76
362.87 K, 19000 kPa, x1 = 0.0074	762.79
362.87 K, 20000 kPa, x1 = 0.0074	763.81
